Read-outs that look alike come from different tables or passages of the source.
Columns and labels:
[1] = test system: Key Broadleaf Weed and Crop Species; experiment: Post-Emergent Test II (Table 5); format: in vivo; details: post-emergence, 336 h; for pest or weed control at 70 g/ha: application rate 70 (kg ai/ha; footnote: g ai/ha); for pest or weed control at 140 g/ha: application rate 140 (kg ai/ha; footnote: g ai/ha)
How it was run: (§1)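 Plants at first or second true-leaf stage, grown 7-21 days in greenhouse, were sprayed post-emergence at 187 L/ha with compounds in acetone/DMSO/water/crop oil/surfactant mixture at the high rate and ½× to 1/16× dilutions. Injury scored visually after 14 days, 0 (none) to 100% (complete kill), versus untreated plants.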

[2] = test system: Key Grass and Sedge Weeds as well as Grass Crops; experiment: Post-Emergent Test II (Table 6); format: in vivo; details: post-emergence, 336 h, 14 days after application; for pest or weed control at 70 g/ha: 70 g ai/ha; for pest or weed control at 140 g/ha: 140 g ai/ha
How it was run: as §1

[3] = Abutilon theophrasti, ABUTH: velvetleaf (Abutilon theophrasti), read-out: Visual Growth Reduction (%) 14 Days After Application ABUTH
[4] = Amaranthus retroflexus, AMARE: redroot pigweed (Amaranthus retroflexus), read-out: Visual Growth Reduction (%) 14 Days After Application AMARE
[5] = Brassica napus, BRSSS: oilseed rape, canola (Brassica napus), read-out: Visual Growth Reduction (%) 14 Days After Application BRSSS
[6] = Chenopodium album, CHEAL: lambsquarters (Chenopodium album), read-out: Visual Growth Reduction (%) 14 Days After Application CHEAL
[7] = Euphorbia heterophylla, EPHHL: wild poinsettia (Euphorbia heterophylla), read-out: Visual Growth Reduction (%) 14 Days After Application EPHHL
[8] = Helianthus annuus, HELAN: sunflower (Helianthus annuus), read-out: Visual Growth Reduction (%) 14 Days After Application HELAN
[9] = Viola tricolor, VIOTR: wild pansy (Viola tricolor), read-out: Visual Growth Reduction (%) 14 Days After Application VIOTR
[10] = CYPSS, read-out: Visual Growth Reduction (%) 14 Days After Application CYPSS
[11] = DIGSA: crabgrass (Digitaria sanguinalis), read-out: Visual Growth Reduction (%) 14 Days After Application DIGSA
[12] = ECHSS, read-out: Visual Growth Reduction (%) 14 Days After Application ECHSS
[13] = ORYSS (crop), read-out: Visual Growth Reduction (%) 14 Days After Application ORYSS
[14] = SORVU: grain sorghum (Sorghum vulgare), read-out: Visual Growth Reduction (%) 14 Days After Application SORVU
[15] = TRZSS (crop), read-out: Visual Growth Reduction (%) 14 Days After Application TRZSS
[16] = ZEAMX: maize, corn (Zea mays), read-out: Visual Growth Reduction (%) 14 Days After Application ZEAMX
[17] = SETFA: giant foxtail (Setaria faberi), read-out: Visual Growth Reduction (%) 14 Days After Application SETFA

COC(=O)c1nc(-c2ccc(C(F)(F)F)c(F)c2C)c(F)c(N)c1Cl [Compound 41]
45 to 59%: pest or weed control at 70 g/ha [1, 6] | pest or weed control at 140 g/ha [1, 7] | pest or weed control at 140 g/ha [2, 16]
85 to 94%: pest or weed control at 140 g/ha [1, 6]
75 to 84%: pest or weed control at 70 g/ha [1, 3]
0 to 29%: pest or weed control at 70 g/ha [1, 4] | pest or weed control at 140 g/ha [1, 4] | pest or weed control at 70 g/ha [1, 5] | pest or weed control at 140 g/ha [1, 5] | pest or weed control at 70 g/ha [1, 7] | pest or weed control at 70 g/ha [1, 9] | pest or weed control at 140 g/ha [1, 9] | pest or weed control at 70 g/ha [2, 10] | pest or weed control at 70 g/ha [2, 11] | pest or weed control at 140 g/ha [2, 11] | pest or weed control at 70 g/ha [2, 12] | pest or weed control at 140 g/ha [2, 12] | pest or weed control at 70 g/ha [2, 13] | pest or weed control at 140 g/ha [2, 13] | pest or weed control at 70 g/ha [2, 14] | pest or weed control at 140 g/ha [2, 14] | pest or weed control at 70 g/ha [2, 15] | pest or weed control at 140 g/ha [2, 15] | pest or weed control at 70 g/ha [2, 16]
95 to 100%: pest or weed control at 70 g/ha [1, 8] | pest or weed control at 140 g/ha [1, 8] | pest or weed control at 140 g/ha [2, 10]
60 to 74%: pest or weed control at 140 g/ha [1, 3]

COC(=O)c1nc(-c2ccc(C(F)(F)F)nc2OC)c(F)c(N)c1Cl [Compound 44, methyl 4-amino-5-chloro-3-fluoro-2′-methoxy-6′-(trifluoromethyl)-2,3′-bipyridine-6-carboxylate]
85 to 94%: pest or weed control at 70 g/ha [1, 6] | pest or weed control at 140 g/ha [1, 6] | pest or weed control at 70 g/ha [1, 8] | pest or weed control at 140 g/ha [1, 8]
75 to 84%: pest or weed control at 140 g/ha [1, 3]
95 to 100%: pest or weed control at 140 g/ha [1, 4]
0 to 29%: pest or weed control at 70 g/ha [1, 4] | pest or weed control at 70 g/ha [1, 7] | pest or weed control at 140 g/ha [1, 7] | pest or weed control at 70 g/ha [1, 9] | pest or weed control at 140 g/ha [1, 9] | pest or weed control at 70 g/ha [2, 10] | pest or weed control at 140 g/ha [2, 10] | pest or weed control at 70 g/ha [2, 11] | pest or weed control at 140 g/ha [2, 11] | pest or weed control at 70 g/ha [2, 13] | pest or weed control at 140 g/ha [2, 13] | pest or weed control at 70 g/ha [2, 17] | pest or weed control at 140 g/ha [2, 17] | pest or weed control at 70 g/ha [2, 14] | pest or weed control at 140 g/ha [2, 14] | pest or weed control at 70 g/ha [2, 15] | pest or weed control at 140 g/ha [2, 15] | pest or weed control at 70 g/ha [2, 16] | pest or weed control at 140 g/ha [2, 16]
45 to 59%: pest or weed control at 70 g/ha [1, 3] | pest or weed control at 70 g/ha [1, 5]
60 to 74%: pest or weed control at 140 g/ha [1, 5]

COC(=O)c1nc(-c2ccc(Cl)c(F)c2C(F)F)cc(N)c1Cl [Compound 53, methyl 4-amino-3-chloro-6-(4-chloro-2-(difluoromethyl)-3-fluorophenyl)picolinate]
85 to 94%: pest or weed control at 70 g/ha [1, 3]
45 to 59%: pest or weed control at 70 g/ha [1, 5] | pest or weed control at 140 g/ha [1, 5]
95 to 100%: pest or weed control at 70 g/ha [1, 4] | pest or weed control at 140 g/ha [1, 4] | pest or weed control at 70 g/ha [1, 6] | pest or weed control at 140 g/ha [1, 6]
0 to 29%: pest or weed control at 140 g/ha [1, 3] | pest or weed control at 70 g/ha [1, 7] | pest or weed control at 140 g/ha [1, 7] | pest or weed control at 70 g/ha [1, 9] | pest or weed control at 140 g/ha [1, 9] | pest or weed control at 70 g/ha [2, 10] | pest or weed control at 140 g/ha [2, 10] | pest or weed control at 70 g/ha [2, 11] | pest or weed control at 140 g/ha [2, 11] | pest or weed control at 70 g/ha [2, 12] | pest or weed control at 140 g/ha [2, 12] | pest or weed control at 70 g/ha [2, 13] | pest or weed control at 140 g/ha [2, 13] | pest or weed control at 70 g/ha [2, 17] | pest or weed control at 140 g/ha [2, 17] | pest or weed control at 70 g/ha [2, 14] | pest or weed control at 140 g/ha [2, 14] | pest or weed control at 70 g/ha [2, 15] | pest or weed control at 140 g/ha [2, 15] | pest or weed control at 70 g/ha [2, 16] | pest or weed control at 140 g/ha [2, 16]
75 to 84%: pest or weed control at 140 g/ha [1, 8]
60 to 74%: pest or weed control at 70 g/ha [1, 8]

COC(=O)c1nc(-c2ccc(I)nc2)c(F)c(N)c1Cl [Compound 54, methyl 4-amino-5-chloro-3-fluoro-6′-Iodo-[2,3′-bipyridine]-6-carboxylate]
85 to 94%: pest or weed control at 70 g/ha [1, 3] | pest or weed control at 140 g/ha [1, 3] | pest or weed control at 70 g/ha [1, 4] | pest or weed control at 140 g/ha [1, 4] | pest or weed control at 70 g/ha [1, 5] | pest or weed control at 140 g/ha [1, 7] | pest or weed control at 70 g/ha [1, 8] | pest or weed control at 140 g/ha [1, 9] | pest or weed control at 140 g/ha [2, 10] | pest or weed control at 140 g/ha [2, 12]
95 to 100%: pest or weed control at 140 g/ha [1, 5] | pest or weed control at 70 g/ha [1, 6] | pest or weed control at 140 g/ha [1, 6] | pest or weed control at 140 g/ha [1, 8]
0 to 29%: pest or weed control at 70 g/ha [2, 13] | pest or weed control at 140 g/ha [2, 13]
75 to 84%: pest or weed control at 70 g/ha [1, 7] | pest or weed control at 70 g/ha [1, 9] | pest or weed control at 70 g/ha [2, 10] | pest or weed control at 140 g/ha [2, 11] | pest or weed control at 70 g/ha [2, 12] | pest or weed control at 140 g/ha [2, 15]
45 to 59%: pest or weed control at 70 g/ha [2, 14] | pest or weed control at 70 g/ha [2, 16]
60 to 74%: pest or weed control at 70 g/ha [2, 11] | pest or weed control at 70 g/ha [2, 17] | pest or weed control at 140 g/ha [2, 17] | pest or weed control at 140 g/ha [2, 14] | pest or weed control at 70 g/ha [2, 15] | pest or weed control at 140 g/ha [2, 16]

From patent publication US10765114B2, “4-amino-6-(pyridyl and 2-substitutedphenyl)-picolinates and 6-amino-2-(pyridyl and 2-substitutedphenyl)-pyrimidine-4-carboxylates and their use as herbicides” (Dow AgroSciences LLC, priority 2013, dated 2020)
